Assay results from US11498899B2, “Nitrone herbicides” (FMC Corporation, priority 2016, dated 2022).

Tests used:
rice (Oryza sativa) = experiment: Test B flooded paddy test, visual rating 0-100 (0 no effect, 100 complete control); settings: Flood, 250 g ai/ha, applied to paddy water, rated after 13 to 15 days
[1] = test system: barnyardgrass (Echinochloa crus-galli); experiment: Test B flooded paddy test, visual rating 0-100; settings: Flood, 250 g ai/ha, applied to paddy water, rated after 13 to 15 days
[2] = test system: barnyardgrass (Echinochloa crus-galli); experiment: Test A preemergence, visual injury rating 0-100 (0 no effect, 100 complete control); type: in vivo
[3] = test system: ragweed (common ragweed, Ambrosia elatior); experiment: Test A preemergence, visual injury rating 0-100; type: in vivo
kochia (Kochia scoparia) [4] = experiment: Test A preemergence, visual injury rating 0-100; type: in vivo
[5] = test system: foxtail, giant (giant foxtail, Setaria faberii); experiment: Test A preemergence, visual injury rating 0-100; type: in vivo
[6] = test system: ryegrass, Italian (Italian ryegrass, Lolium multiflorum); experiment: Test A preemergence, visual injury rating 0-100; type: in vivo
[7] = test system: pigweed (Amaranthus retroflexus); experiment: Test A preemergence, visual injury rating 0-100; type: in vivo
[8] = test system: ducksalad (Heteranthera limosa); experiment: Test B flooded paddy test, visual rating 0-100; settings: Flood, 250 g ai/ha, applied to paddy water, rated after 13 to 15 days
[9] = test system: galium (catchweed bedstraw, Galium aparine); experiment: Test A postemergence, visual injury rating 0-100; type: in vivo; settings: 0 to 100 scale
[10] = test system: blackgrass (Alopecurus myosuroides); experiment: Test A postemergence, visual injury rating 0-100; type: in vivo; settings: 0 to 100 scale
[11] = test system: ragweed (common ragweed, Ambrosia elatior); experiment: Test A postemergence, visual injury rating 0-100; type: in vivo; settings: 0 to 100 scale
corn (Zea mays) = experiment: Test A postemergence, visual injury rating 0-100; type: in vivo; settings: 0 to 100 scale
[12] = test system: barnyardgrass (Echinochloa crus-galli); experiment: Test A postemergence, visual injury rating 0-100; type: in vivo; settings: 0 to 100 scale
kochia (Kochia scoparia) [13] = experiment: Test A postemergence, visual injury rating 0-100; type: in vivo; settings: 0 to 100 scale
[14] = test system: foxtail, giant (giant foxtail, Setaria faberii); experiment: Test A postemergence, visual injury rating 0-100; type: in vivo; settings: 0 to 100 scale
[15] = test system: ryegrass, Italian (Italian ryegrass, Lolium multiflorum); experiment: Test A postemergence, visual injury rating 0-100; type: in vivo; settings: 0 to 100 scale
[16] = test system: wheat (Triticum aestivum); experiment: Test A postemergence, visual injury rating 0-100; type: in vivo; settings: 0 to 100 scale
[17] = test system: pigweed (Amaranthus retroflexus); experiment: Test A postemergence, visual injury rating 0-100; type: in vivo; settings: 0 to 100 scale

| Compound | Rice plant response rating (0 to 100 scale) (rice (Oryza sativa)) | Barnyardgrass plant response rating (0 to 100 scale) [1] | Barnyardgrass plant response rating (0 to 100 scale) ([2]; 125 g ai/ha) | Barnyardgrass plant response rating (0 to 100 scale) ([2]; 500 g ai/ha) | Ragweed plant response rating (0 to 100 scale) ([3]; 125 g ai/ha) | Ragweed plant response rating (0 to 100 scale) ([3]; 500 g ai/ha) | Kochia plant response rating (0 to 100 scale) (kochia (Kochia scoparia) [4]; 125 g ai/ha) | Kochia plant response rating (0 to 100 scale) (kochia (Kochia scoparia) [4]; 500 g ai/ha) | Foxtail, Giant plant response rating (0 to 100 scale) ([5]; 125 g ai/ha) | Foxtail, Giant plant response rating (0 to 100 scale) ([5]; 500 g ai/ha) | Ryegrass, Italian plant response rating (0 to 100 scale) ([6]; 125 g ai/ha) | Ryegrass, Italian plant response rating (0 to 100 scale) ([6]; 500 g ai/ha) | Pigweed plant response rating (0 to 100 scale) ([7]; 125 g ai/ha) | Pigweed plant response rating (0 to 100 scale) ([7]; 500 g ai/ha) | Ducksalad plant response rating (0 to 100 scale) [8] | Galium plant response rating ([9]; 125 g ai/ha) | Galium plant response rating ([9]; 500 g ai/ha) | Blackgrass plant response rating ([10]; 125 g ai/ha) | Blackgrass plant response rating ([10]; 500 g ai/ha) | Ragweed plant response rating ([11]; 125 g ai/ha) | further results |
| --- | --- | --- | --- | --- | --- | --- | --- | --- | --- | --- | --- | --- | --- | --- | --- | --- | --- | --- | --- | --- | --- |
| CC1=[N+]([O-])C(C(=O)Nc2cccc(F)c2F)C(c2cc(C)n(Cc3ccc(Cl)cc3)c(=O)c2)C1 (racemic) [Compound 86] | 0 | 0 | 0 | 0 | 0 | 0 | 0 | 0 | 0 | 0 | 0 | 0 | 0 | 0 | 0 | 0 | 0 | 0 | 0 | 0 | Ragweed plant response rating ([11]; 500 g ai/ha): 0; Corn plant response rating (corn (Zea mays); 125 g ai/ha): 0; Corn plant response rating (corn (Zea mays); 500 g ai/ha): 10; Barnyardgrass plant response rating ([12]; 125 g ai/ha): 0; Barnyardgrass plant response rating ([12]; 500 g ai/ha): 0; Kochia plant response rating (kochia (Kochia scoparia) [13]; 125 g ai/ha): 0; Kochia plant response rating (kochia (Kochia scoparia) [13]; 500 g ai/ha): 0; Foxtail, Giant plant response rating ([14]; 125 g ai/ha): 0; Foxtail, Giant plant response rating ([14]; 500 g ai/ha): 0; Ryegrass, Italian plant response rating ([15]; 125 g ai/ha): 0; Ryegrass, Italian plant response rating ([15]; 500 g ai/ha): 0; Wheat plant response rating ([16]; 125 g ai/ha): 0; Wheat plant response rating ([16]; 500 g ai/ha): 0; Pigweed plant response rating ([17]; 125 g ai/ha): 0; Pigweed plant response rating ([17]; 500 g ai/ha): 0 |
| CC1=[N+]([O-])C(C(=O)Nc2cccc(F)c2F)C(c2ccc(C(F)(F)F)c(C)c2)C1 (racemic) [Compound 87] | 0 | 50 | 90 | 90 | 0 | 70 | 10 | 80 | 90 | 90 | 90 | 90 | 100 | 100 | 85 | 0 | 70 | 70 | 90 | 10 | Ragweed plant response rating ([11]; 500 g ai/ha): 30; Corn plant response rating (corn (Zea mays); 125 g ai/ha): 70; Corn plant response rating (corn (Zea mays); 500 g ai/ha): 80; Barnyardgrass plant response rating ([12]; 125 g ai/ha): 80; Barnyardgrass plant response rating ([12]; 500 g ai/ha): 90; Kochia plant response rating (kochia (Kochia scoparia) [13]; 125 g ai/ha): 10; Kochia plant response rating (kochia (Kochia scoparia) [13]; 500 g ai/ha): 70; Foxtail, Giant plant response rating ([14]; 125 g ai/ha): 60; Foxtail, Giant plant response rating ([14]; 500 g ai/ha): 90; Ryegrass, Italian plant response rating ([15]; 125 g ai/ha): 70; Ryegrass, Italian plant response rating ([15]; 500 g ai/ha): 90; Wheat plant response rating ([16]; 125 g ai/ha): 70; Wheat plant response rating ([16]; 500 g ai/ha): 80; Pigweed plant response rating ([17]; 125 g ai/ha): 0; Pigweed plant response rating ([17]; 500 g ai/ha): 50 |
